≈ marks a conversion by molar mass, not a printed value. Like-named read-outs stand apart in the source and are kept apart here.

Series [1] deals with Plasmodium berghei. Kind of series: Plasmodium berghei mouse malaria model (Peters test, cures at 30 days). The format is in vivo. The note with it: po, 720 h; for responders at 4 mg/kg: Table 6, 4 mg/kg. The source says: The suppressive 4-day “Peters test” ^27 involving P. berghei infected mice provides a convenient and cost effective means to assess the overall in vivo performance of pre-clinical antimalarials. […] Mice were followed for 30 days and judged to have been cured of the infection based on the lack of detectable parasitemia at the end of the study.
Female Swiss Webster Mice (average of 20 g body weight) were infected intraperitoneally with 10^6 Plasmodium berghei-infected erythrocytes collected from a previously infected mouse. […] There were five mice in each test arm. Infections were monitored by daily microscopic evaluation of Giemsa-stained blood smears starting on day seven. Parasitemia were determined by counting the number of infected and uninfected erythrocytes. Body weight was measured over the course of the treatment. […] Animal survival and morbidity were closely monitored for up to 30 days post-infection when the experiment was terminated. In some cases survival is expressed as a PD100 or PD50, the dose that produces respectively 100% or 50% cures in treated animals at 30 days post infection.

Series [2] in a line: Mouse liver microsome assay (half-life, intrinsic clearance). The note with it: for T1/2: half-life when incubated with mouse liver microsomes. The text has this: A second hypothesis regarding trans-R^A substitution (R^A in Scheme 1) was that the resulting de-symmetrized molecular topology would impact the vivo PK/PD properties of these analogs. […] To explore possible metabolic differences, we evaluated selected analogs with mouse liver microsomes and derived intrinsic clearance (CLint) values (Table 1).

For series [3], the system named is Plasmodium berghei. Kind of series: Plasmodium berghei mouse malaria model (Peters test, cures at 30 days). In kind it is in vivo. The note with it: po, 720 h, oral gavage, read-out: Mice Cured (%).
The next series has as its system PC3 tumor. Description: Biodistribution of 18F probes in PC3 tumor-bearing mice. The format is in vivo, mouse. As for the experimental part: FIG. 6. B9[^18F] biodistribution in PC3-bearing mice. An intravenous injection of 300 μCi was given at the tail vein of each mouse. At 30, 60 and 90 minutes post-injection, mice were sacrificed and their organs collected. […] FIG. 7. B9[^18F] biodistribution in PC3-bearing mice. An intravenous injection of 300 μCi was given at the tail vein of mice containing either a subcutaneous PC3 tumor or a renal capsule PC3 tumor. At 60 minutes post-injection, mice were sacrificed and their organs collected. […] FIG. 8. B20[^18F] biodistribution in PC3 tumor-bearing nude mice: An intravenous injection of 300 μCi was given at the tail vein of each mouse. At 60 and 90 minutes post-injection, mice were sacrificed and their organs collected. The radioactivity in the tumor appears to be stable at about 0.3% id/gram.

Series [4] has as its system Plasmodium falciparum: strain W2. Description: Plasmodium falciparum growth inhibition assay (EC50 determinations). The note with it: W2 strain of P. falciparum. The format is cell-based.
Experimental: The growth inhibition assay for P. falciparum was conducted as described previously^29 with minor modifications. […] Following 48 hours of incubation, the cells were fixed by adding 0.1 ml of 2% formaldehyde in phosphate buffered saline, pH=7.4 (PBS). […] Parasitemias were determined from dot plots (forward scatter vs. fluorescence) using [sequence] software (Becton Dickinson). EC50 values for growth inhibition were determined from plots of percentage control parasitemia over inhibitor concentration using GraphPad Prism software.
Series [5] in a line: Kinetic solubility in PBS. The format is physicochemical. Particulars: kinetic solubility in PBS (pH = 7.4), final DMSO 5%, average of three determinations.
[6] abbreviates: Table 4, 4 mg/kg/day, once a day for four days, oral gavage, read-out: Mice Cured (%).
The mark [7] stands for this setting: Table 4, 6 mg/kg/day, once a day for four days, oral gavage, read-out: Mice Cured (%).

In the case of `N[C@H]1CC[C@H](NC(=O)C[C@@H]2CCC[C@]3(C2)OOC2(O3)C3CC4CC(C3)CC2C4)CC1` (stereo partly drawn) [12j, N-((trans)-4-Aminocyclohexyl)-2-((R,R)-dispiro[adamantane-2,3′-[1,2,4]trioxolane-5′,1″-cyclohexan]-3″-yl)acetamide], the responders at 4 mg/kg/day in the series with Plasmodium berghei [1] (setting [6]) turned out to be 60%. For the same compound, the responders at 6 mg/kg/day in the series with Plasmodium berghei [1] (setting [7]) came to 100%.

For `Cc1ncc2n1-c1ccc(Cl)cc1C(c1ccccc1F)=NC2` [midazolam], in series [2], the “T1/2” value turned out to be 0.0275 h. Also, the CLint in series [2] (mouse liver microsomes, CLint = Ln(2)*1000/T1/2/protein concentration) was 420 μL/min/mg of protein.

Take `c1cc([C@H]2CC[C@]3(CC2)OO[C@]2(O3)C3CC4CC(C3)CC2C4)ccc1OCCN1CCOCC1` [3Z (artefenomel)]: the responders at 40 mg/kg in the series with Plasmodium berghei [1] (read-out: Mice Cured (%), Table 7, 40 mg/kg, 1 dose, oral gavage) was 100%. Further, the responders at 80 mg/kg in the series with Plasmodium berghei [1] (read-out: Mice Cured (%), Table 7, 80 mg/kg, 1 dose, oral gavage) was 100%.

Turning to `NCCNC(=O)C[C@@H]1CCC[C@]2(C1)OOC1(O2)C2CC3CC(C2)CC1C3` (stereo partly drawn) [12c, N-(2-Aminoethyl)-2-((R,R)-dispiro[adamantane-2,3′-[1,2,4]trioxolane-5′,1″-cyclohexan]-3″-yl)acetamide], the “T1/2” value in series [2] is 1.41 h. The “T1/2 (min) No NADPH” value in series [2] (mouse liver microsomes, no NADPH) stood at 136 min. Also, the CLint in series [2] (mouse, microsomes) is 8.2 μL/min/mg of protein. For the same compound, the responders at 4 mg/kg/day stood at 100% with Plasmodium berghei [1] (setting [6]) and 100% in the series with Plasmodium berghei [1] (Table 5, 4 mg/kg/day, once a day for four days, oral gavage, read-out: Mice Cured (%)). Besides, the responders at 6 mg/kg/day in the series on Plasmodium berghei [1] (setting [7]) was determined as 100%. Further, in the series on Plasmodium berghei [1] (Table 5, 0.5 mg/kg/day, once a day for four days, oral gavage, read-out: Mice Cured (%)), the responders at 0.5 mg/kg/day is 0%. In addition, the responders at 1 mg/kg/day in the series with Plasmodium berghei [1] (Table 5, 1 mg/kg/day, once a day for four days, oral gavage, read-out: Mice Cured (%)) came to 0%. Moreover, in the series on Plasmodium berghei [1] (Table 5, 2 mg/kg/day, once a day for four days, oral gavage, read-out: Mice Cured (%)), the responders at 2 mg/kg/day stood at 0%. Besides, the responders at 4 mg/kg in the series on Plasmodium berghei [1] (1 dose, oral gavage, read-out: Mice Cured (%)) worked out at 0%; in the series on Plasmodium berghei [1] (2 daily doses, oral gavage, read-out: Mice Cured (%)), 0%; in the series with Plasmodium berghei [1] (4 daily doses, oral gavage, read-out: Mice Cured (%)), 100%; in the series with Plasmodium berghei [3] (Table 6, 4 mg/kg, 3 daily doses), 20%. The responders at 40 mg/kg stood at 100% in the series with Plasmodium berghei [1] (Table 7, 40 mg/kg, 2 doses, oral gavage, read-out: Mice Cured (%)) and 0% in the series with Plasmodium berghei [3] (Table 7, 40 mg/kg, 1 dose). Besides, the responders at 80 mg/kg in the series on Plasmodium berghei [3] (Table 7, 80 mg/kg, 1 dose) came out at 20%.

With `CN1CCN(C(=O)C[C@@H]2CCC[C@]3(C2)OOC2(O3)C3CC4CC(C3)CC2C4)CC1` (stereo partly drawn) [12h, 2-((R,R)-Dispiro[adamantane-2,3′-[1,2,4]trioxolane-5′,1″-cyclohexan]-3″-yl)-1-(4-methylpiperazin-1-yl)ethan-1-one], the responders at 4 mg/kg/day in the series with Plasmodium berghei [1] (setting [6]) turned out to be 0%. For the same compound, the responders at 6 mg/kg/day in the series with Plasmodium berghei [1] (setting [7]) came out at 0%.

Regarding `O=C(NCCCNC(=O)C12CC3CC(C1)[C@]1(OO[C@]4(CC[C@@H](c5ccc(OCCN6CCOCC6)cc5)CC4)O1)C(C3)C2)c1ccc(F)cc1` [B9[^18F], N-(3-(4-[^18F]fluorobenzamido)propyl)-4″-(4-(2-morpholinoethoxy)phenyl)dispiro[adamantane-2,3′-[1,2,4]trioxolane-5′,1″-cyclohexane]-5-carboxamide], the “biodistribution, subcutaneous vs renal capsule PC3 tumor” value in the series with PC3 tumor (300 μCi i.v. tail vein, 60 minutes post-injection) is reported as “no major differences noticed between the two xenograft models”. Besides, the “radioactivity in the tumor” value with PC3 tumor (PC3-bearing mice, 300 μCi i.v. tail vein, 30, 60 and 90 minutes post-injection) is recorded as “up to 4 % id/gram”.

Turning to `NC(=O)CNC(=O)C[C@@H]1CCC[C@]2(C1)OOC1(O2)C2CC3CC(C2)CC1C3` (stereo partly drawn) [12b, N-(2-Amino-2-oxoethyl)-2-((R,R)-dispiro[adamantane-2,3′-[1,2,4]trioxolane-5′,1″-cyclohexan]-3″-yl)acetamide], in series [2], the “T1/2” value is 0.622 h. In series [2] (mouse, microsomes), the CLint is listed as 18.6 μL/min/mg of protein and the “T1/2 (min) No NADPH” value is “stable”.

Regarding `O=C(C[C@@H]1CCC[C@]2(C1)OOC1(O2)C2CC3CC(C2)CC1C3)N1CCOCC1` (stereo partly drawn) [12f, 2-((R,R)-Dispiro[adamantane-2,3′-[1,2,4]trioxolane-5′,1″-cyclohexan]-3″-yl)-1-morpholinoethan-1-one], the responders at 4 mg/kg/day in the series on Plasmodium berghei [1] (setting [6]) worked out at 0%. The responders at 6 mg/kg/day with Plasmodium berghei [1] (setting [7]) was 0%. Moreover, the “potency of 12f relative to regioisomer 2f” value in series [4] was “three-fold more potent than 2f”.

As to `O=C(C[C@@H]1CCC[C@]2(C1)OOC1(O2)C2CC3CC(C2)CC1C3)N1CCNCC1` (stereo partly drawn) [12g, 2-((R,R)-Dispiro[adamantane-2,3′-[1,2,4]trioxolane-5′,1″-cyclohexan]-3″-yl)-1-(piperazin-1-yl)ethan-1-one], the “T1/2” value in series [2] was 0.425 h. For the same compound, in series [2] (mouse, microsomes), the CLint was 27.2 μL/min/mg of protein and the “T1/2 (min) No NADPH” value is on record as “stable”. In addition, the responders at 4 mg/kg/day with Plasmodium berghei [1] (setting [6]) was determined as 0%. The responders at 6 mg/kg/day with Plasmodium berghei [1] (setting [7]) was 20%.

`C[C@]12CC[C@H]3[C@@H](CCC4=CC(=O)CC[C@@]43C)[C@@H]1CC[C@@H]2O` [testosterone]: the Solubility (commonly how much of the substance goes into solution per volume) in series [5] came out at 315 µM (≈ 90.9 µg/mL).

Regarding `CC(C)(N)CNC(=O)C[C@H]1CC[C@]2(CC1)OO[C@]1(O2)C2CC3CC1CC(C(=O)NCCCNC(=O)c1ccc(F)cc1)(C3)C2` [B20[^18F], (1R,2r,3S,4″S,5S,5′s,7S)-4″-(2-((2-amino-2-methylpropyl)amino)-2-oxoethyl)-N-(3-(4-^18F-fluorobenzamido)propyl)dispiro[adamantane-2,3′-[1,2,4]trioxolane-5′,1′″-cyclohexane]-5-carboxamide], the “radioactivity in the tumor” value in the series with PC3 tumor (PC3 tumor-bearing nude mice, 300 μCi i.v. tail vein, 60 and 90 minutes post-injection) is given as “about 0.3 % id/gram”.

Regarding `CC(C)(CN)CNC(=O)C[C@@H]1CCC[C@]2(C1)OOC1(O2)C2CC3CC(C2)CC1C3` (stereo partly drawn) [12d, N-(3-Amino-2,2-dimethylpropyl)-2-((R,R)-dispiro[adamantane-2,3′-[1,2,4]trioxolane-5′,1″-cyclohexan]-3″-yl)acetamide], in series [2], the “T1/2” value came out at 1.07 h. Further, in series [2] (mouse, microsomes), the CLint is 10.8 μL/min/mg of protein and the “T1/2 (min) No NADPH” value is on record as “stable”. Also, the responders at 4 mg/kg/day in the series with Plasmodium berghei [1] (setting [6]) was 0%. In addition, in the series with Plasmodium berghei [1] (setting [7]), the responders at 6 mg/kg/day was determined as 0%.

For the compound `NC1CCN(C(=O)C[C@@H]2CCC[C@]3(C2)OOC2(O3)C3CC4CC(C3)CC2C4)CC1` (stereo partly drawn) [12i, 1-(4-Aminopiperidin-1-yl)-2-((R,R)-dispiro[adamantane-2,3′-[1,2,4]trioxolane-5′,1″-cyclohexan]-3″-yl)ethan-1-one], the “T1/2” value in series [2] stood at 1.41 h. Also, in series [2] (mouse, microsomes), the CLint is given as 8.2 μL/min/mg of protein and the “T1/2 (min) No NADPH” value is “stable”.

Turning to `CC(C)(N)CNC(=O)C[C@@H]1CCC[C@]2(C1)OOC1(O2)C2CC3CC(C2)CC1C3` (stereo partly drawn) [12a, N-(2-Amino-2-methylpropyl)-2-((R,R)-dispiro[adamantane-2,3′-[1,2,4]trioxolane-5′,1″-cyclohexan]-3″-yl)acetamide], the “Solubility” value in series [5] is 429 µM (≈ 168 µg/mL). Further, in series [2], the “T1/2” value turned out to be 2.82 h. In series [2] (mouse, microsomes), the CLint is 4.1 μL/min/mg of protein. Moreover, the “T1/2 (min) No NADPH” value in series [2] (mouse, microsomes) is reported as “stable”. In addition, the responders at 9.5 mg/kg/day in the series with Plasmodium berghei [1] (Table 2, free base, 9.5 mg/kg/day, once a day for four days, oral gavage, no parasitemia at 30 days, read-out: Mice Cured (%)) was 100%. Also, the responders at 13.6 mg/kg/day with Plasmodium berghei [1] (Table 2, tosylate salt, 13.6 mg/kg/day, once a day for four days, oral gavage, no parasitemia at 30 days, read-out: Mice Cured (%)) was determined as 100%. For the same compound, the responders at 1 mg/kg/day in the series with Plasmodium berghei [1] (Table 3, free base, 1 mg/kg/day, four daily doses, oral gavage, read-out: Mice Cured (%)) was 0%. The responders at 4 mg/kg/day was 0% in the series with Plasmodium berghei [1] (Table 3, free base, 4 mg/kg/day, four daily doses, oral gavage, read-out: Mice Cured (%)) and 60% with Plasmodium berghei [1] (setting [6]). In addition, the responders at 6 mg/kg/day worked out at 60% with Plasmodium berghei [1] (Table 3, free base, 6 mg/kg/day, four daily doses, oral gavage, read-out: Mice Cured (%)) and 100% with Plasmodium berghei [1] (setting [7]). In addition, in the series on Plasmodium berghei [1] (Table 3, free base, 10 mg/kg/day, four daily doses, oral gavage, read-out: Mice Cured (%)), the responders at 10 mg/kg/day turned out to be 100%.

Source of the values: patent US12139470B2, “Trioxolane agents” (The Regents of the University of California, priority 2017, dated 2024).
